Measurements from US20040009956A1, “Inhibition of protein tyrosine phosphatases and SH2 domains by a neutral phosphotyrosine mimetic” (priority 2002, published 2004).
“And” between values parts separate entries of the source, which are not always exact repeats. Equal entries are not always repeated. Where two headings read alike, the source gives them in different places. Each block holds one compound with its values, some of them ahead of it.

Key:
Type in all cases: biochemical
PTP1B = molecular target: T1, PTP1B (Homo sapiens, UniProt P18031); test: PTP inhibition assay (pNPP hydrolysis), PTP1B
T1 construct: made in house; host or cells: Escherichia coli
T1 sequence (P18031 1-435): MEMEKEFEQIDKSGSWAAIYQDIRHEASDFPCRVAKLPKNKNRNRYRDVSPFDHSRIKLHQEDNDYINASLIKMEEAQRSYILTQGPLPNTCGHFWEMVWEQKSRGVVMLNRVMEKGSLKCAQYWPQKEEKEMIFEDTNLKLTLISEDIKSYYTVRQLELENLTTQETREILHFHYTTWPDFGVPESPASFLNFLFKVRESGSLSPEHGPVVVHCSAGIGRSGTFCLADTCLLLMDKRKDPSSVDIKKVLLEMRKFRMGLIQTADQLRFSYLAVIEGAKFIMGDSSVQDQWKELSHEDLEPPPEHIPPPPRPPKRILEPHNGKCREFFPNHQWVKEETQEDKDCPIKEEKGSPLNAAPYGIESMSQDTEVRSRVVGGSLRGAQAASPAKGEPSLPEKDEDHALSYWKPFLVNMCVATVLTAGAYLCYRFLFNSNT
Description: (§1) PTP Inhibition Assays. Stock solutions of inhibitors were prepared in dimethyl sulfoxide (DMSO) and their concentrations were calculated from the known inhibitor masses and solvent volumes. A typical reaction (total volume 1 mL) contained 50 mM HEPES (pH 7.4), 1 mM EDTA, 1 mM tris(carboxyethyl)phosphine (TCEP), 50 mM NaCl, 5% (v/v) DMSO, 0.1-0.2 μM PTP, and 0-2000 μM inhibitor. After incubation of the enzyme with the inhibitor for 1 h at room temperature, the reaction was initiated by the addition of 1.0 mM p-nitrophenyl phosphate (pNPP). The reaction progress was monitored at 405 nm on a Perkin-Elmer UV-Vis spectrophotometer. The IC50 values were determined by plotting the remaining activity as a function of inhibitor concentration, and the K1* values were obtained by fitting the data to the Michaelis-Menten equation. To determine the K1 value, the reaction was initiated by addition of enzyme (0.2 μM) into the above reaction mixture, which also contained 1.0 mM pNPP. The reaction was monitored continuously on the UV-Vis spectrophotometer and the initial reaction rates (<15 s) were fitted to the Michaelis-Menten equation.
To determine the rate constant κ6, the enzyme (1.0 μM) was incubated with 50-100 μM inhibitor in 100 μL of the above reaction buffer for 3 h at room temperature. The mixture was rapidly diluted into 900 μL of the same reaction buffer containing 1.0 mM pNPP (without inhibitor). Reactivation of PTP activity was monitored at 405 nm and the progress curves were fit to the equation
where νs is the final steady-state velocity. The rate constant κ5 was calculated using the equation
Inactivation of Inhibitor Cinn-GEE by Cysteamine. Cinn-GEE (1 mM) was incubated with 100 mM cysteamine hydrochloride (which had been neutralized by the addition of 1.0 equivalent of NaOH) in 100 μL of a 97:3 DMSO/H2O mixture for 24 h. The treated inhibitor was then used in inhibition assays as described above. As a control, inhibition assay also performed with the same amount of cysteamine hydrochloride/NaOH solution.

VHR = molecular target: T2, VHR (Homo sapiens, UniProt P51452); test: PTP inhibition assay (pNPP hydrolysis), dual-specificity phosphatase VHR
T2 construct: made in house; host or cells: Escherichia coli
T2 sequence (P51452 whole entry, species assumed): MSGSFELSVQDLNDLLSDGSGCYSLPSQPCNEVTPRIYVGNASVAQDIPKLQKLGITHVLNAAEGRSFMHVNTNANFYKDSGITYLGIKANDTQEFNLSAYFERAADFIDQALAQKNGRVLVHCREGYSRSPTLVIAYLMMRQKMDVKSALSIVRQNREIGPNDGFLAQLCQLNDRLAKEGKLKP
Description: as §1

SHP-1 = molecular target: T3, SHP-1 (Homo sapiens, UniProt P29350); test: PTP inhibition assay (pNPP hydrolysis), catalytic domain of SHP-1, SHP-1(ΔSH2)
T3 construct: The catalytic domain of SHP-1, SHP-1(ΔSH2), was purified from a recombinant Escherichia coli strain; made in house; host or cells: Escherichia coli
T3 sequence (P29350 214-595): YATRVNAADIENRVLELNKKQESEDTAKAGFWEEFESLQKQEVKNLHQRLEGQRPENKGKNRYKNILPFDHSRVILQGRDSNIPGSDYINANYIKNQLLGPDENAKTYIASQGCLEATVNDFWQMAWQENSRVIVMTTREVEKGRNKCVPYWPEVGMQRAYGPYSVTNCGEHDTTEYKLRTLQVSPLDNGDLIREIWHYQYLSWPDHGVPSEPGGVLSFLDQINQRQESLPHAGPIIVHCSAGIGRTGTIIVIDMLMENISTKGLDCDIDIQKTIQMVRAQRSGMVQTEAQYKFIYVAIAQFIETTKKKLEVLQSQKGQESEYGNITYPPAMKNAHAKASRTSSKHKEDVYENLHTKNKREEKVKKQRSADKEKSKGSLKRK
Description: as §1

[1] = 1 h preincubation with inhibitor, 1.0 mM pNPP, pH 7.4
[2] = slow-binding inhibition, 1 h preincubation, 1.0 mM pNPP, read-out: KI* (overall equilibrium inhibition constant)

IC50 (PTP1B; [1]): 970 µM
IC50 (VHR; [1]): > 2000 µM
Inhibition against VHR (VHR; up to 2 mM): no significant inhibition
IC50 (SHP-1; [1]): 230 µM
Structure (SMILES): O=CC=Cc1ccc(C(=O)O)cc1 [Compound 3, 4-(3-Oxo-1-propenyl)benzoic acid]

Structure (SMILES): O=Cc1ccccc1 [Compound 1, Benzaldehyde, reference compound]
Inhibitory activity (in words) (PTP1B): least active
Inhibitory activity (in words) (VHR): least active
Inhibitory activity (in words) (SHP-1): least active

κ6, rate for reactivation of PTP1B (PTP1B; E·I* complex preformed 3 h, diluted 10-fold into 1.0 mM pNPP): 0.56 min⁻¹
κ5, rate for conversion of noncovalent E·I complex to covalent complex (PTP1B; calculated from K1*=K1κ6/(κ5+κ6)): 56 min⁻¹
Ki (PTP1B; initial reaction rates (<15 s), reaction initiated by enzyme, read-out: K1, equilibrium inhibition constant for the initial complex E·I): 550 µM
Inhibitory activity against PTP1B after treatment of inhibitor with cysteamine (PTP1B; prior treatment with excess cysteamine): abolished
Ki (PTP1B; [2]): 5.4 µM and 5.42 µM
Ki (VHR; [2]): 288 µM
Ki (SHP-1; [2]): 10.7 µM
Structure (SMILES): NC(=O)C(CCC(=O)O)NC(=O)C(CCC(=O)O)NC(=O)CNC(=O)c1ccc(C=CC=O)cc1 (stereo not drawn) [Compound 5, N-[4-(3-Oxo-1-propenyl)benzoyl]-Gly-Glu-Glu-NH2]
